Measured values: patent publication US20040142012A1, “Geometry retainable devices for body cavities” (priority 2001, published 2004)

Settings: in vivo
Experimental: Progesterone content in the plasma was determined by direct radio immuno assay (Coat-a-Count, DPC, USA).

## poly (ε-caprolactone)
  Time to return to undetectable basal plasma progesterone levels after insert removal: ≤ 24 h
